Laboratory results: US20250381307A1, “RETRO-AAV AND USE IN TREATING NEURODEGENERATIVE DISEASES” (priority 2023, published 2025)

Assays:
rM3Ds = target: T1, rM3Ds (Rattus norvegicus, UniProt P08483, A177S/A238G/A489L/DEL261-437/DEL441-478/E258S/I253V/I483M/INS256[…]/K178L/K182A/K255R/K484R/K486H/L173F/L482A/M480V/R171S/R176Q/R179M/S481M/T174R/T181R/T257A/Y148C); assay: 6-OHDA parkinsonian mouse model: open field and rotarod; format: in vivo, C57/BL6 mice; set-up: rM3Ds; 2A-EYFP (C); host or cells: AAV8R12-transduced striatal D1-MSNs of mice and cynomolgus macaques (in vivo and acute slices); details: AAV8R12-G88P7-rM3Ds-2A-EYFP, 6-OHDA mice
T1 sequence (P08483 with tags, fused parts or gaps Y148C/R171S/L173F/T174R/R176Q/A177S/K178L/R179M/T181R/K182A/A238G/I253V/K255R/INS256[…]/T257A/E258S/DEL261-437/DEL441-478/M480V/S481M/L482A/I483M/K484R/K486H/A489L): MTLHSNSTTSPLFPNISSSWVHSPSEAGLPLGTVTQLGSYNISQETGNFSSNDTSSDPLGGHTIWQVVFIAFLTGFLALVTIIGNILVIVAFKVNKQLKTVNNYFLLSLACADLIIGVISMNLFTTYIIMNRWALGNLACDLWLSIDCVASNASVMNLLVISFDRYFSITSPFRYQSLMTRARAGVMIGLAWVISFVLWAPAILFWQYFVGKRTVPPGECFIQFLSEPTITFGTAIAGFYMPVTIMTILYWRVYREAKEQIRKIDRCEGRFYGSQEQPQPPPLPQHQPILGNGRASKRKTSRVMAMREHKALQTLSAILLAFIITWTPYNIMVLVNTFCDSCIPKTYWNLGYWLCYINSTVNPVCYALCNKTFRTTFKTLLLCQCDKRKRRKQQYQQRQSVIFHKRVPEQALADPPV
Protocol: Rodent Parkinson's disease mice models were created through bilateral injection of 6-OHDA using the same methods as described in virus injections (Example 3). A total volume of 1 ul 6-OHDA (5 mg/ml, dissolved in sterile saline containing 0.02% ascorbic acid, Sigma) was injected into the striatum at a speed of 100 nL/min. The coordinates for striatum were 0.5 mm anterior, 1.5 mm lateral, 3.2 mm ventral to the bregma. A premedication of desipramine (25 mg/kg, Sigma) was administered to animals prior to injections of 6-OHDA, in order to increase the selectivity and efficacy of 6-OHDA-induced lesions. Mice were supplemented with DietGel (ClearH2O) for one-week post-surgery. All staining and behavioral experiments were performed at least 14 days following surgery, when the amount of dopamine depletion was maximal and stable.
Mice were individually handled for 10-20 seconds per day for at least 5 days to habituate them to the experimenter. The open field test was conducted in a test apparatus (50 cm×50 cm×50 cm) with an HD digital camera (Sony) positioned above the arena. On day one, mice were habituated to the apparatus for 10 minutes. […] The behavioral data were analyzed with ANY-maze software (Stoelting Co.).
Mice were individually handled as described in the open field test. […] Latency to fall for each trial was automatically recorded by the apparatus. […]

[1] = Locomotion test in naive macaques without viral injection; format: in vivo; details: naive macaques, n=3, not significant
hM3Dq = hM3Dq (Homo sapiens, UniProt P20309, A239G/Y149C); assay: Rotation behavior and nigral c-Fos in mice after unilateral nigral AAV8R12-G88P3-HA-hM3Dq and CNO; format: in vivo, C57BL/6J mice; set-up: host or cells: AAV8R12-transduced neurons (striatal D1-MSNs, some SNr neurons) of mice and macaques; details: for rotation behavior (FIG. 6C): control vector AAV8R12-G88P3-EYFP, n=5
Protocol: Mice were anesthetized with sodium pentobarbital (Nembutal; 80 mg/kg, i.p.), and then placed into a stereotaxic device (KOPF). Eye cream was applied on both corneas to avoid dehydration. The skull above the targeted areas was thinned with a dental drill and carefully removed. Injections were conducted with a 10 μL syringe connected to a 33-Gauge needle (Neuros; Hamilton), using a microsyringe pump (Legato 130, KD Scientific). A total volume of 200 nL virus was injected into the SNr at a speed of 20 nL/min. The coordinates for the SNr were 3.4 mm posterior, 1.3 mm lateral, 4.8 mm ventral to the bregma.
Mice that were used in the behavioral experiments were then implanted with guide cannulas (KOPF) unilaterally aiming at the dorsomedial striatum (0.5 mm anterior, 1.5 mm lateral, 3.5 mm ventral to the bregma). The cannulas were fixed to the skull with dental cement. Stainless steel obturators were inserted into the guide cannulas and were replaced every other day to maintain the patency until infusions were made. Mice were allowed to recover from the surgery for at least 3 weeks before further studies.
Mice were individually handled for 10-20 seconds per day for at least 5 days to habituate them to the experimenter. The open field test was conducted in a test apparatus (50 cm×50 cm×50 cm) with an HD digital camera (Sony) positioned above the arena. On day one, mice were habituated to the apparatus for 10 minutes. On day 2, mice were administrated saline (0.1 mL i.p. or 200 nL intracranially [i.e.] through the guide cannulas). On day 3, mice were administrated with Clozapine-N-oxide (CNO, Hello Bio, HB1807; 0.3 mg/kg i.p. or 200 nL at 100 μM i.e.). All behavioral tests were conducted 30 minutes after injection. During the test, mice were allowed to freely explore the apparatus for 10 minutes. The behavioral data were analyzed with ANY-maze software (Stoelting Co.).

Sequence of hM3Dq (P20309 whole entry Y149C/A239G): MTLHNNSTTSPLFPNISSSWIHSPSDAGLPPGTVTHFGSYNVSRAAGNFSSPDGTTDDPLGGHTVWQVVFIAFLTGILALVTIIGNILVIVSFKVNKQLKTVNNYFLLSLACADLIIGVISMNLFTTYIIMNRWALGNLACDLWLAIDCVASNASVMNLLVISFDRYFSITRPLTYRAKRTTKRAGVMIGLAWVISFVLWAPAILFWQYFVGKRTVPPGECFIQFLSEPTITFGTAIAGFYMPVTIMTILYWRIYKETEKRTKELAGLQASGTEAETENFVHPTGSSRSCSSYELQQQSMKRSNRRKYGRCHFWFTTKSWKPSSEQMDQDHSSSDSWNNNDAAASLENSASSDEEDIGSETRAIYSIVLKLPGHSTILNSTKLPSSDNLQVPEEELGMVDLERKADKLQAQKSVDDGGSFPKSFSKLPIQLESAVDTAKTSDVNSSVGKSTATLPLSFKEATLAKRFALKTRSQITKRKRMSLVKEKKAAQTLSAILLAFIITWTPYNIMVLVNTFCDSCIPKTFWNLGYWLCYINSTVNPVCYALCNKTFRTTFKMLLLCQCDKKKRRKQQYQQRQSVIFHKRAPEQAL

C[N+]1([O-])CCN(C2=Nc3cc(Cl)ccc3Nc3ccccc32)CC1 [CNO, clozapine N-oxide]
motor skill in rotarod test (rM3Ds; CNO): partially rescued the motor skill deficit
spontaneous movement in an open field (rM3Ds; systemic CNO): drastically reversed the dyskinesia-like phenotype of PD mice
contraversive and ipsiversive rotation (FIG. 11C) ([1]; saline 0.767±0.4296): 0.8384±0.4152
speed of contraversive rotations (FIG. 11G) ([1]; saline 39.07±5.889): 39.63±7.092
speed of ipsiversive rotations (FIG. 11H) ([1]; saline 41.49±3.96): 42.79±4.705
total distance (FIG. 11F) ([1]; saline 53.12±15.3): 59.48±18.65
time spending in the higher portion of the observing cages (FIG. 11D) ([1]; saline 55.73±2.64): 60.43±4.542
immobile time (FIG. 11E) ([1]; saline 149.9±21.61): 149.8±22.65
rotations (FIG. 6A; ipsiversive rotations induced) (hM3Dq; CNO i.p., AAV8R12-G88P3-HA-hM3Dq, n=8 mice, mean±SEM, saline 45.25±4.128): 87.84±4.666
rotation behavior (FIG. 6C) (hM3Dq; CNO i.p., saline 47.08±10.5): 44.72±10.89
rotations (FIG. 6A; contraversive rotations induced) (hM3Dq; CNO intracranial into dorsomedial striatum, AAV8R12-G88P3-HA-hM3Dq, n=8, saline 49.63±5.879): 15.08±3.435
nigral c-Fos+ cells (hM3Dq; CNO intracranial, hM3Dq): No significant changes in the number of nigral c-Fos+ cells
rotation behavior (FIG. 6C) (hM3Dq; CNO intracranial, saline 54.22±8.766): 61.39±5.774
c-Fos+ cells in the right SNr (hM3Dq; CNO intraperitoneal, hM3Dq): significant increase in c-Fos+ cells
